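Each compound was tested at five concentrations against cells in 96-well plates for 48 hours. GI50 = concentration required for 50% inhibition of growth.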 The source made the active and inactive calls. No stated cut-off is given here; in the data, active = GI50 up to about 1.1 µM and inactive = higher.
Tests used:
Experiment in all cases: inhibition of tumour cell growth, NCI panel, 48 h
[1] = tested on: 786-0
[2] = tested on: ACHN
[3] = tested on: BT-549
[4] = tested on: CAKI-1
[5] = tested on: COLO 205
[6] = tested on: EKVX
[7] = tested on: Hs-578T
[8] = tested on: NCI-H226
[9] = tested on: NCI-H23
[10] = tested on: NCI/ADR-RES
[11] = tested on: OVCAR-4
[12] = tested on: OVCAR-5
[13] = tested on: OVCAR-8
[14] = tested on: SF-539
[15] = tested on: SK-MEL-28
[16] = tested on: T47D
[17] = tested on: UACC-62
[18] = tested on: HOP-92
[19] = tested on: SK-MEL-5
[20] = tested on: TK-10

SMILES	GI50 [1]	GI50 [2]	GI50 [3]	GI50 [4]	GI50 [5]	GI50 [6]	GI50 [7]	GI50 [8]	GI50 [9]	GI50 [10]	GI50 [11]	GI50 [12]	GI50 [13]	GI50 [14]	GI50 [15]	GI50 [16]	GI50 [17]	GI50 [18]	GI50 [19]	GI50 [20]
O=[N+]([O-])C(/C(Cl)=C(/Cl)N1CCOCC1)=C1\Nc2ccccc2O1	> 100 µM (inactive)	> 100 µM (inactive)	> 100 µM (inactive)	> 100 µM (inactive)	> 100 µM (inactive)	> 100 µM (inactive)	> 100 µM (inactive)	> 100 µM (inactive)	> 100 µM (inactive)	83.2 µM (inactive)	> 100 µM (inactive)	> 100 µM (inactive)	> 100 µM (inactive)	> 100 µM (inactive)	> 100 µM (inactive)	> 100 µM (inactive)	96.2 µM (inactive)	–	–	–
COc1cccc(C2c3cc4c(cc3OC(NNC(N)=O)C2C)OCO4)c1OC (stereo unspecified)	4.76 µM (inactive)	26.9 µM (inactive)	20.1 µM (inactive)	24.5 µM (inactive)	14.7 µM (inactive)	26.7 µM (inactive)	19.7 µM (inactive)	25.3 µM (inactive)	30.8 µM (inactive)	–	–	34.1 µM (inactive)	4.32 µM (inactive)	15.4 µM (inactive)	21.4 µM (inactive)	27.1 µM (inactive)	22.3 µM (inactive)	19.1 µM (inactive)	19.6 µM (inactive)	28.9 µM (inactive)
COc1cc(/C=C2\N=C(C)N(n3c(-c4ccccc4)nc4ccccc4c3=O)C2=O)cc(OC)c1OC	> 100 µM (inactive)	> 100 µM (inactive)	> 100 µM (inactive)	> 100 µM (inactive)	> 100 µM (inactive)	> 100 µM (inactive)	> 100 µM (inactive)	> 100 µM (inactive)	94.6 µM (inactive)	–	–	–	> 100 µM (inactive)	> 100 µM (inactive)	> 100 µM (inactive)	82.4 µM (inactive)	> 100 µM (inactive)	–	> 100 µM (inactive)	> 100 µM (inactive)
COc1cc(C2CC(C)(Nc3ccccc3)Oc3cc4c(cc32)OCO4)cc(OC)c1OC (stereo unspecified)	0.298 µM (active)	0.499 µM (active)	0.506 µM (active)	0.478 µM (active)	0.839 µM (active)	1.82 µM (inactive)	0.105 µM (active)	0.855 µM (active)	0.301 µM (active)	0.277 µM (active)	1.84 µM (inactive)	2.71 µM (inactive)	0.483 µM (active)	0.171 µM (active)	0.254 µM (active)	–	0.203 µM (active)	15.8 µM (inactive)	0.153 µM (active)	1.88 µM (inactive)
O=c1oc2c(Cl)cc(Cl)cc2cc1C1=CSC2=NCCN12	40.8 µM (inactive)	49.7 µM (inactive)	26 µM (inactive)	52.2 µM (inactive)	> 100 µM (inactive)	41.9 µM (inactive)	–	–	46 µM (inactive)	79.6 µM (inactive)	39.7 µM (inactive)	> 100 µM (inactive)	63.7 µM (inactive)	> 100 µM (inactive)	47.1 µM (inactive)	36.5 µM (inactive)	51.9 µM (inactive)	28.6 µM (inactive)	27.4 µM (inactive)	73.1 µM (inactive)
N#CC(c1nc2ccccc2s1)c1ncnc(Cl)c1[N+](=O)[O-] (stereo unspecified)	20.1 µM (inactive)	37.6 µM (inactive)	22.9 µM (inactive)	25.2 µM (inactive)	15.5 µM (inactive)	23.2 µM (inactive)	–	20.2 µM (inactive)	16.5 µM (inactive)	17.8 µM (inactive)	27.7 µM (inactive)	24.3 µM (inactive)	18.5 µM (inactive)	30.3 µM (inactive)	19.9 µM (inactive)	29.1 µM (inactive)	–	17.3 µM (inactive)	15.8 µM (inactive)	34.3 µM (inactive)
